Values of other authors in patent publication US20060111343A1, “Oxcarbazepine dosage forms” (Glenmark Pharmaceuticals Limited, priority 2004, published 2006).

solubility in water: poor solubility in water
SMILES: NC(=O)N1c2ccccc2CC(=O)c2ccccc21 [Oxcarbazepine, 10,11-dihydro-10-oxo-5H-dibenzo[b,]azepine-5-carboxamide]
